{"source": "paper PMC3506619", "about": "“NADP^+ Binding to the Regulatory Subunit of Methionine Adenosyltransferase II Increases Intersubunit Binding Affinity in the Hetero-Trimer” (PLoS ONE, 2012)", "key": {"[1]": {"target": "T1, MAT β subunit (regulatory β subunit, V1 form) (Homo sapiens, UniProt Q9NZL9, K163A/Y159F)", "T1 construct": "gene MAT2B; full length V1 from GST fusion in E. coli, TEV-cut, GSH linker retained at N-terminus; monomer/dimer equilibrium", "T1 sequence (Q9NZL9 1-334 Y159F/K163A)": "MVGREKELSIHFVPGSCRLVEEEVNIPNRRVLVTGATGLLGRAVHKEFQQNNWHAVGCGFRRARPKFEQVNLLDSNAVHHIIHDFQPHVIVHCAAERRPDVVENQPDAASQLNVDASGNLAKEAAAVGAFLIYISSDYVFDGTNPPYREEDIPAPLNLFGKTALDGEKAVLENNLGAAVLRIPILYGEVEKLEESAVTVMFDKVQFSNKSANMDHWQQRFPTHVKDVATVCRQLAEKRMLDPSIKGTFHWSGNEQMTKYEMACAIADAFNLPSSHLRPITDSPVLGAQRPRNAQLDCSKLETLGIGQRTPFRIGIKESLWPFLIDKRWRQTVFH", "test": "isothermal titration calorimetry", "assay_type": "binding"}, "[2]": {"target": "T2, MAT β subunit (regulatory β subunit, V1 form) (Homo sapiens, UniProt Q9NZL9)", "T2 construct": "gene MAT2B; full length V1 from GST fusion in E. coli, TEV-cut, GSH linker retained at N-terminus; monomer/dimer equilibrium", "T2 sequence (Q9NZL9 1-334)": "T1 sequence (Q9NZL9 1-334 Y159F/K163A) with F159Y, A163K", "test": "isothermal titration calorimetry", "assay_type": "binding", "details": "read-out: NADP^+→β", "excerpt": "isothermal titration calorimetry on MAT β subunit (regulatory β subunit, V1 form)"}, "[3]": {"target": "T3, Truncated MAT II (α2 dimer + ΔS16 β) (Homo sapiens, UniProt P31153, G193S/A233V)", "T3 construct": "gene MAT2A; ratio 2:1; with Methionine adenosyltransferase 2 subunit beta", "T3 sequence (P31153 whole entry G193S/A233V, stated change not applied, the tested form may be a part)": "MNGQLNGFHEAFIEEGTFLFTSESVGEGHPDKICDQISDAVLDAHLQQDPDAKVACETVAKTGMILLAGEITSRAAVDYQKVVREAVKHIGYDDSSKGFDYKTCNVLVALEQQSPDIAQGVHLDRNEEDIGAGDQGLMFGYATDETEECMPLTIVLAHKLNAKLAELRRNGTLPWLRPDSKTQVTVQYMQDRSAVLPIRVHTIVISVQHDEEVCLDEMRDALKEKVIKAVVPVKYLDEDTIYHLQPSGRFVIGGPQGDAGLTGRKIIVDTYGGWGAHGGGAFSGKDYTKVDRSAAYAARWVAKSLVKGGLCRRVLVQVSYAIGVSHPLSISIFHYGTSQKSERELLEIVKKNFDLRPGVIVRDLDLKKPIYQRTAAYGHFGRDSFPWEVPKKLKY", "T3 sequence (Q9NZL9 17-334 partner limits assumed, stated change not applied)": "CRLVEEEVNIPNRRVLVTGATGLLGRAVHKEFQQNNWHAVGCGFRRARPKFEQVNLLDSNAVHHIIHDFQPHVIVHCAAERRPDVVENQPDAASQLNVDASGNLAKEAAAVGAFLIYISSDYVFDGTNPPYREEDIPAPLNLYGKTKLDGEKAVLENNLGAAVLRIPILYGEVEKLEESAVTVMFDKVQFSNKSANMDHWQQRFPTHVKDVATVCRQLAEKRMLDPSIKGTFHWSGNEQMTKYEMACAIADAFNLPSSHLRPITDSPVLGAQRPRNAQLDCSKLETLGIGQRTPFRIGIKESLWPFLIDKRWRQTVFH", "test": "MAT activity assay (AdoMet synthesis)", "assay_type": "biochemical", "details": "5 mM methionine, 37 °C, no added NADP+", "excerpt": "MAT activity assay (AdoMet synthesis) on Truncated MAT II (α2 dimer + ΔS16 β)"}, "[4]": {"target": "T4, refolded-α2 (MAT α2 homo-dimer) (Homo sapiens, UniProt P31153, G193S/A233V)", "T4 construct": "gene MAT2A; 43447 Da; dimer (tetramer at higher concentration); all cloned ORFs carry A233V and G193S", "T4 sequence (P31153 whole entry G193S/A233V)": "as the sequence (P31153 whole entry G193S/A233V, stated change not applied, the tested form may be a part) above", "test": "MAT activity assay (AdoMet synthesis)", "assay_type": "biochemical", "details": "5 mM methionine, 37 °C, no added NADP+", "excerpt": "MAT activity assay (AdoMet synthesis) on refolded-α2 (MAT α2 homo-dimer)"}, "[5]": {"target": "T5, MAT II (α2 dimer + wild type β hetero-trimer) (Homo sapiens, UniProt P31153, G193S/A233V, form not given)", "T5 construct": "gene MAT2A; hetero-trimer 2:1; with Methionine adenosyltransferase 2 subunit beta", "T5 sequence (P31153 whole entry G193S/A233V, form open, one chain of several)": "as the sequence (P31153 whole entry G193S/A233V, stated change not applied, the tested form may be a part) above", "test": "MAT activity assay (AdoMet synthesis)", "assay_type": "biochemical", "details": "5 mM methionine, 37 °C, no added NADP+", "excerpt": "MAT activity assay (AdoMet synthesis) on MAT II (α2 dimer + wild type β hetero-trimer)"}}, "note": "Positions count from the first letter of the chain named."}
{"smiles": "NC(=O)c1ccc[n+]([C@@H]2O[C@H](COP(=O)(O)OP(=O)(O)OC[C@H]3O[C@@H](n4cnc5c(N)ncnc54)[C@H](OP(=O)(O)O)[C@@H]3O)[C@@H](O)[C@H]2O)c1", "note": "[NADP^+]", "values": [{"measurement": "Kd", "setting": "[1]", "result": "> 150000", "unit": "nM"}, {"measurement": "Kd", "setting": "[2]", "result": 1700, "unit": "nM"}]}
{"smiles": "Nc1ncnc2c1ncn2[C@@H]1O[C@H](COP(=O)(O)OP(=O)(O)OP(=O)(O)O)[C@@H](O)[C@H]1O", "note": "[ATP]", "values": [{"measurement": "Km", "setting": "[3]", "result": "151 ± 81.4", "unit": "µM"}, {"measurement": "Km", "setting": "[4]", "result": "254 ± 66.2", "unit": "µM"}, {"measurement": "Km", "setting": "[5]", "result": "125 ± 32.2", "unit": "µM"}]}
